In US20080200403A1, “9A-Carbamoyl and Thiocarbamoyl Azalides with Anti-Inflammatory Activity” (GLAXOSMITHKLINE, priority 2005, published 2008):

Assays:
Format in all cases: cell-based
TNF-α = test: Inhibition of TNF-α production by stimulated human peripheral blood leukocytes in vitro; conditions: PBL
Protocol: (§1) Test substances used in in vitro experiments were dissolved in dimethyl sulfoxide (DMSO) (Kemika, Croatia) at concentrations of 50 mM and 10 mM, and were further diluted to final concentrations of 50 μM and 10 μM in 1 mL Dulbecco's modified Eagle medium (DMEM) supplemented with 1% heat inactivated fetal bovine serum (FBS), 1% L-glutamine, 50 U/ml penicillin, 50 μg/ml streptomycin and 2.5 μg/mL Fungizone (amphotericin B). Media and all media supplements were purchased from Gibco, Australia, except the FBS was purchased from Sigma, USA.
(§2) Peripheral blood leukocytes (PBL) were obtained from venous blood of healthy volunteers by sedimentation on 2% dextran T-500 (Amersham Biosciences, USA) and subsequent centrifugations of leukocyte rich plasma.
(§3) Peripheral blood leukocytes (PBL), isolated as described above, were seeded in a 48-well plate at a concentration of 3 to 5×10^6 cell per well in culture medium consisting of RPMI 1640 medium (Institute of Immunology, Croatia) supplemented with 10% heat-inactivated fetal calf serum (FCS, Biowhittaker, USA), 100 U/ml penicillin (Gibco, Australia), 100 μg/ml streptomycin (Gibco, Australia) and 2 mM L-glutamine (Gibco, Australia), and preincubated with the test compounds for 2 h at 37° C., in an atmosphere of 5% CO2, and 90% humidity. Then, stimuli (Sigma, USA) were added to a final concentration of 2 μg/mL lipopolysaccharide (LPS), 1 μg/mL phorbol 12-myristate 13-acetate (PMA) or 120 μg/mL zymosan. Samples were incubated overnight under conditions described above. At the end of incubation, the supernatants were transferred to eppendorf tubes and centrifuged for 10 min at 1500×g. Concentrations of human TNF-α, IL-1β, IL-6 and IL-8 were determined in cell supernatants by sandwich ELISA, using capture and detection antibodies (R&D Systems, Minneapolis, Minn.) according to the manufacturer's recommendations.
(§4) Inhibition (as percentage) was calculated using the following formula: % inhibition=(1−concentration of cytokines in sample/concentration of cytokines in positive control)×100. The positive control refers to stimulated samples, not treated with substances.

IL-1α = test: Inhibition of IL-1 production by stimulated human peripheral blood leukocytes in vitro; conditions: PBL
IL-6 = test: Inhibition of IL-6 production by stimulated human peripheral blood leukocytes in vitro; conditions: PBL
Protocol: as §1, §2, §3, §4

IL-8 = test: Inhibition of IL-8 production by stimulated human peripheral blood leukocytes in vitro; conditions: PBL
Protocol: as §1, §2, §3, §4

[1] = tested on: human peripheral blood mononuclear cells (PBMC); test: Human T-cell proliferation in vitro (3H-thymidine incorporation)
Protocol: Influence of substances at two different concentrations (50 μM and 10 μM) on cell proliferation of human peripheral blood mononuclear cells (PBMC) was assessed.
Heparinized peripheral blood was obtained from healthy donors, and PBMC were isolated by Histopaque 1077 (Sigma, USA) density centrifugation at 400×g for 30 minutes. 5×10^4 cells/well were cultured for 3 days in the RPMI medium as described above, in the presence (positive control) or absence (negative control) of stimulators [PHA (2.5 μg/mL) (Sigma, USA), or both PMA (10 ng/mL) (Sigma, USA) and ionomycin (500 ng/mL) (Calbiochem, USA)], and in the presence of the test compounds, at 37° C. in an atmosphere of 5% CO2 and 90% humidity. The cells were pulsed with 1 μCi of ^3H-thymidine (Amersham, USA) per well during the last 18 h of the culture, and were harvested on the 96-well filter (Packard Bioscience, USA) using a multiple cell harvester (Packard, USA). The incorporation of ^3H-thymidine in activated cells were measured using TopCount NXT (Packard, USA).
Inhibition (as percentage) was calculated using the following formula: % inhibition=(1−(^3H)thymidine incorporation expressed in counts per minute (cpm) in sample/(^3H)thymidine incorporation expressed in cpm in positive control)×100
where positive control refers to stimulated samples, not treated with substances.

[2] = zymosan stimulated, compound 10 μM
[3] = zymosan stimulated, compound 50 μM

| Compound | Percentage of inhibition of TNF-α production (TNF-α; LPS stimulated, compound 10 μM) [%] | Percentage of inhibition of TNF-α production (TNF-α; LPS stimulated, compound 50 μM) [%] | Percentage of inhibition of TNF-α production (TNF-α; PMA stimulated, compound 10 μM) [%] | Percentage of inhibition of TNF-α production (TNF-α; PMA stimulated, compound 50 μM) [%] | Percentage of inhibition of TNF-α production (TNF-α; [2]) [%] | Percentage of inhibition of TNF-α production (TNF-α; [3]) [%] | Percentage of inhibition of IL-1α production (IL-1α; LPS stimulated, compound 10 μM) [%] | Percentage of inhibition of IL-1α production (IL-1α; LPS stimulated, compound 50 μM) [%] | Percentage of inhibition of IL-1α production (IL-1α; PMA stimulated, compound 10 μM) [%] | Percentage of inhibition of IL-1α production (IL-1α; PMA stimulated, compound 50 μM) [%] | Percentage of inhibition of IL-1α production (IL-1α; [2]) [%] | Percentage of inhibition of IL-1α production (IL-1α; [3]) [%] | Percentage of inhibition of IL-6 production (IL-6; LPS stimulated, compound 10 μM) [%] | Percentage of inhibition of IL-6 production (IL-6; LPS stimulated, compound 50 μM) [%] | Percentage of inhibition of IL-6 production (IL-6; [2]) [%] | Percentage of inhibition of IL-6 production (IL-6; [3]) [%] | Percentage of inhibition of IL-8 production (IL-8; LPS stimulated, compound 10 μM) [%] | Percentage of inhibition of IL-8 production (IL-8; LPS stimulated, compound 50 μM) [%] | Percentage of inhibition of IL-8 production (IL-8; [2]) [%] | Percentage of inhibition of IL-8 production (IL-8; [3]) [%] | other results |
| --- | --- | --- | --- | --- | --- | --- | --- | --- | --- | --- | --- | --- | --- | --- | --- | --- | --- | --- | --- | --- | --- |
| CC[C@H]1OC(=O)[C@H](C)[C@@H](O)[C@H](C)[C@@H](O[C@@H]2O[C@H](C)C[C@H](N(C)C)[C@H]2O)[C@](C)(O)C[C@@H](C)CN(C(=O)NCc2ccccc2)[C@H](C)[C@@H](O)[C@]1(C)O [Compound 8] | 58 | 30 | 56 | 54 | 16 | 0 | 42 | 40 | 26 | 0 | 16 | 17 | 60 | 82 | 20 | 18 | 48 | 0 | 0 | 0 | Percentage of inhibition of IL-8 production (IL-8; PMA stimulated, compound 10 μM): 37%; Percentage of inhibition of IL-8 production (IL-8; PMA stimulated, compound 50 μM): 0%; Percentage of inhibition of proliferation of stimulated PBMC ([1]; PHA stimulated, compound 10 μM): 0%; Percentage of inhibition of proliferation of stimulated PBMC ([1]; PHA stimulated, compound 50 μM): 0%; Percentage of inhibition of proliferation of stimulated PBMC ([1]; PMA + ionomycin stimulated, compound 10 μM): 0%; Percentage of inhibition of proliferation of stimulated PBMC ([1]; PMA + ionomycin stimulated, compound 50 μM): 0% |
| CC[C@H]1OC(=O)[C@H](C)[C@@H](O[C@H]2C[C@@](C)(OC)[C@@H](O)[C@H](C)O2)[C@H](C)[C@@H](O[C@@H]2O[C@H](C)C[C@H](N(C)C)[C@H]2O)[C@](C)(O)C[C@@H](C)CN(C(=S)Nc2ccc(Br)cc2)[C@H](C)[C@@H](O)[C@]1(C)O [Compound 7] | 0 | 100 | 95 | 100 | 69 | 100 | 71 | 89 | 0 | 79 | 96 | 83 | 54 | 100 | 73 | 100 | 39 | 100 | 61 | 99 | Percentage of inhibition of IL-6 production (IL-6; PMA stimulated, compound 10 μM): 65%; Percentage of inhibition of IL-6 production (IL-6; PMA stimulated, compound 50 μM): 90%; Percentage of inhibition of IL-8 production (IL-8; PMA stimulated, compound 10 μM): 40%; Percentage of inhibition of IL-8 production (IL-8; PMA stimulated, compound 50 μM): 100% |
| CC[C@H]1OC(=O)[C@H](C)[C@@H](O[C@H]2C[C@@](C)(OC)[C@@H](O)[C@H](C)O2)[C@H](C)[C@@H](O[C@@H]2O[C@H](C)C[C@H](N(C)C)[C@H]2O)[C@](C)(O)C[C@@H](C)CN(C(=O)Nc2ccc(Cl)c(C(F)(F)F)c2)[C@H](C)[C@@H](O)[C@]1(C)O [Compound 10] | 32 | 99 | 0 | 100 | 69 | 99 | 0 | 100 | 0 | 100 | 0 | 96 | 63 | 100 | 76 | 100 | 55 | 93 | 82 | 97 | Percentage of inhibition of IL-6 production (IL-6; PMA stimulated, compound 10 μM): 40%; Percentage of inhibition of IL-6 production (IL-6; PMA stimulated, compound 50 μM): 100%; Percentage of inhibition of IL-8 production (IL-8; PMA stimulated, compound 10 μM): 75%; Percentage of inhibition of IL-8 production (IL-8; PMA stimulated, compound 50 μM): 100% |
| CC[C@H]1OC(=O)[C@H](C)C2O[C@@](C)(C[C@@H](C)CN(C(=O)NCc3ccccc3)[C@H](C)[C@@H](O)[C@]1(C)O)[C@H](O[C@@H]1O[C@H](C)C[C@H](N(C)C)[C@H]1O)[C@H]2C [Compound 11] | 0 | 51 | – | – | 13 | 88 | 48 | 38 | – | – | 85 | 77 | 0 | 66 | 72 | 100 | 0 | 52 | 23 | 75 | – |
